Measured values as given in US20170304388A1, “NEW INDICATION OF CARDIOVASCULAR DRUGS FOR PREPARATION OF CANCER INHIBITION PHARMACEUTICAL COMPOSITION” (LAUNX BIOMEDICAL CO., LTD., priority 2014, published 2017).
Counter-ions that a name gives are not always drawn. Like-named read-outs stand apart in the source and are kept apart here.

Tests used:
Assay type in all cases: cell-based
[1] = test system: A375 (Amelanotic Melanoma); experiment: Cell viability analysis (WST-1), A375; conditions: Homo sapiens, WST-1, OD450 nm, lower viability = better inhibition, read-out: survival rate (viability) of cancer cells, A375
[2] = test system: HCT116 (Colorectal Carcinoma); experiment: Cell viability analysis (WST-1), HCT116; conditions: Homo sapiens, WST-1, OD450 nm, read-out: survival rate (viability) of cancer cells, HCT116 (WT)
[3] = test system: HepG2 (Hepatocellular Carcinoma); experiment: Cell viability analysis (WST-1), HepG2; conditions: Homo sapiens, WST-1, OD450 nm, read-out: survival rate (viability) of cancer cells, HepG2
[4] = test system: HeLa (Cervix Adenocarcinoma); experiment: Cell viability analysis (WST-1), HeLa; conditions: Homo sapiens, HeLa, WST-1, OD450 nm, read-out: survival rate (viability) of cancer cells, HeLa
[5] = test system: AGS (Gastric Adenocarcinoma); experiment: Cell viability analysis (WST-1), AGS; conditions: WST-1, OD450 nm, read-out: survival rate (viability) of cancer cells, AGS
[6] = test system: H1650 (Lung Adenocarcinoma); experiment: Cell viability analysis (WST-1), H1650; conditions: Homo sapiens, WST-1, OD450 nm, read-out: survival rate (viability) of cancer cells, H1650
[7] = test system: MKN-45 (Gastric Adenocarcinoma); experiment: Cell viability analysis (WST-1), MKN-45; conditions: Homo sapiens, WST-1, OD450 nm, read-out: survival rate (viability) of cancer cells, MKN-45
[8] = test system: TSGH-8301 (Urinary Bladder Carcinoma); experiment: Cell viability analysis (WST-1), TSGH-8301; conditions: WST-1, OD450 nm, read-out: survival rate (viability) of cancer cells, TSGH
[9] = test system: A549 (Lung Adenocarcinoma); experiment: Cell viability analysis (WST-1), A549; conditions: Homo sapiens, WST-1, OD450 nm, read-out: survival rate (viability) of cancer cells, A549
[10] = test system: MCF7 (Mammary Gland, Adenocarcinoma); experiment: Cell viability analysis (WST-1), MCF7; conditions: Homo sapiens, WST-1, OD450 nm, read-out: survival rate (viability) of cancer cells, MCF7
[11] = test system: PC3 (Prostate Adenocarcinoma); experiment: Cell viability analysis (WST-1), PC3; conditions: WST-1, OD450 nm, read-out: survival rate (viability) of cancer cells, PC3
[12] = test system: LoVo (Colorectal Adenocarcinoma); experiment: Cell viability analysis (WST-1), LoVo; conditions: Homo sapiens, LoVo, WST-1, OD450 nm, read-out: survival rate (viability) of cancer cells, LoVo
[13] = test system: HL-60 (Acute Promyelocytic Leukemia); experiment: Cell viability analysis (WST-1), HL-60; conditions: Homo sapiens, HL-60; Table 3; drug 10 μM, 72 hours, WST-1, OD450 nm; read-out: survival rate (viability) of cancer cells, HL-60
cancer cell lines = experiment: Growth inhibitory effects on the panel of cancer cell lines; conditions: drug 10 μM, 72 hours; for Numbers of inhibitory effect on cancer cell line: count of cancer cell lines inhibited; for inhibition effect on different cancer cell lines (in words): WST-1
[14] = A-375, 72 h, Table 3, drug 10 μM
[15] = HCT-116, 72 h, Table 3, drug 10 μM
[16] = HepG2, 72 h, Table 3, drug 10 μM
[17] = NCI-H1650, 72 h, Table 3, drug 10 μM
[18] = MKN-45, 72 h, Table 3, drug 10 μM
[19] = A549, 72 h, Table 3, drug 10 μM
[20] = MCF7, 72 h, Table 3, drug 10 μM

Row | SMILES | viability at 10 µM [1, 14] | viability at 10 µM [2, 15] | viability at 10 µM [3, 16] | viability at 10 µM ([4]; 72 h, Table 3, drug 10 μM) | viability at 10 µM ([5]; 72 h, Table 3, drug 10 μM) | viability at 10 µM [6, 17] | viability at 10 µM [7, 18] | viability at 10 µM ([8]; 72 h, Table 3, drug 10 μM) | viability at 10 µM [9, 19] | viability at 10 µM [10, 20] | viability at 10 µM ([11]; 72 h, Table 3, drug 10 μM) | viability at 10 µM ([12]; 72 h, Table 3, drug 10 μM) | viability at 10 µM [13] | Numbers of inhibitory effect on cancer cell line (cancer cell lines) | inhibition effect on different cancer cell lines (in words) (cancer cell lines) | further results
1 | CCOC(=O)[C@H](CCc1ccccc1)N[C@@H](C)C(=O)N1[C@H](C(=O)O)C[C@@H]2CCC[C@@H]21 [Ramipril (Altace), Ramipril] | 120% | 108% | 106% | 84.3% | 99.8% | 135% | 84% | 114% | 99.6% | 82.4% | 104% | 81.9% | 107% | 0 | significant inhibition effect | –
2 | C#CCN[C@@H]1CCc2ccccc21 [Rasagiline mesylate] | 76.9% | 142% | 92% | 88.1% | 75.8% | 71.8% | 87.7% | 74.2% | 91.3% | 88.3% | 103% | 94% | 105% | 0 | significant inhibition effect | –
3 | CCN(C)C(=O)Oc1cccc([C@H](C)N(C)C)c1 [Rivastigmine tartrate (Exelon), Rivastigmine tartrate] | – | – | – | – | – | – | – | – | – | – | – | – | 103% | 0 | significant inhibition effect | viability at 10 µM ([1]; A-375, Table 3, drug 10 μM, 72 hours): 76.1%; viability at 10 µM ([2]; HCT-116, Table 3, drug 10 μM, 72 hours): 118%; viability at 10 µM ([3]; HepG2, Table 3, drug 10 μM, 72 hours): 93.7%; viability at 10 µM ([4]; Table 3, drug 10 μM, 72 hours): 90.1%; viability at 10 µM ([5]; Table 3, drug 10 μM, 72 hours): 63.6%; viability at 10 µM ([6]; NCI-H1650, Table 3, drug 10 μM, 72 hours): 83.6%; viability at 10 µM ([7]; MKN-45, Table 3, drug 10 μM, 72 hours): 93.8%; viability at 10 µM ([8]; Table 3, drug 10 μM, 72 hours): 83.9%; viability at 10 µM ([9]; A549, Table 3, drug 10 μM, 72 hours): 65.9%; viability at 10 µM ([10]; MCF7, Table 3, drug 10 μM, 72 hours): 67.5%; viability at 10 µM ([11]; Table 3, drug 10 μM, 72 hours): 85.4%; viability at 10 µM ([12]; Table 3, drug 10 μM, 72 hours): 85.4%
4 | CCCSc1nc(N[C@@H]2C[C@H]2c2ccc(F)c(F)c2)c2nnn([C@@H]3C[C@H](OCCO)[C@@H](O)[C@H]3O)c2n1 [Ticagrelor] | 60.1% | 73.6% | 94.5% | 126% | 100% | 76% | 114% | 86% | 85% | 83.1% | 84.1% | 79.6% | 93.7% | 0 | significant inhibition effect | –
5 | Clc1ccccc1CN1CCc2sccc2C1 [Ticlopidine HCl] | 86.5% | 71.9% | 97.4% | 81.9% | 77.2% | 61.6% | 72.7% | 112% | 84.9% | 96.8% | 69.9% | 90.5% | 102% | 0 | significant inhibition effect | –
6 | NS(=O)(=O)c1cc2c(cc1Cl)NC(C(Cl)Cl)NS2(=O)=O (stereo not drawn) [Trichlormethiazide (Achletin), Trichlormethiazide] | 128% | 112% | 95.1% | 85.7% | 79.3% | 76.7% | 71% | 95.6% | 106% | 64.2% | 122% | 107% | 102% | 0 | significant inhibition effect | –
7 | CC(=O)NS(=O)(=O)c1ccc(N)cc1 [sulfacetamide sodium] | 64.9% | 76.7% | 98.7% | 75.9% | 81.4% | 79.8% | 118% | 120% | 70% | 110% | 70.8% | 81.8% | 112% | 0 | significant inhibition effect | –
